Assays:
[1] = molecular target: T1, mutant BKCa channel (G803D/N806K) (Rattus norvegicus, UniProt Q62976, G803D/N806K); experiment: Cell-based TI+ fluorescence (FluxOR) assay in AD-293 cells
T1 construct: expressed in transfected cells
Method: AD-293 cells (Lee et al., 2013), as a modified HEK293 cell for expressing a mutant BKCa channel, were placed in DMEM (Dulbecco's Modified Eagle's medium) supplemented with 10% fetal bovine serum and 1 mg/ml geneticin (Gibco) as an antibiotic. The cells were cultured under a humidified condition of 5% CO2 and 37° C.
AD-293 cells stably expressing the mutant BKCa channel (G803D/N806K) were used for cell-based assays (Lee et al., 2013). Approximately 20,000 cells/well were inoculated on a black-wall assay plate (Corning Incorporated) coated with poly-D-lysine (Sigma-Aldrich), which is 96-well clear-bottom. A FluxOR™ […] (Invitrogen) was used for initial screening of compound libraries, and for further assay of candidate compounds. Experiments were performed according to the manufacturer's following guidelines: growth medium was replaced with 80 μl/well of loading buffer containing FluxOR™ fluorescent dye, and incubation was carried out for 1 hour under a light-free condition. After the incubation, the loading buffer was replaced with 100 μl/well of assay buffer containing various concentrations of compounds of interest, followed by incubation for 20 minutes to 30 minutes. DMSO (1%) was vehicle and the vehicle was used for all test compounds. CTBIC (Cormemis et al. 2005; Lee et al. 2012), previously identified as an activator of the BKCa channel, was used as a positive control. For fluorescence measurements, synergy TM H1 hybrid multi-mode microplate reader (BioTek Instrument Inc., Winnoski, Vt.) and Cen5 software was used in initial screening. For additional assays, Flexstation 3 multi-mode microplate reader (Molecular Devices) and SoftMax®Pro software were used, respectively. A fluorescence signal was obtained at an excitation wavelength of 485 nm and an emission wavelength of 528 nm. Membrane polarization was induced by a stimulus buffer containing thallium ion. The fluorescence signal was measured under two conditions: every 10 seconds for 2 minutes before treating the stimulation buffer and then every 10 seconds for 3 minutes after addition of stimulation buffer for synergy H1, and every 2 seconds for 20 seconds before stimulus buffer treatment, and then every 2 seconds for 160 seconds after adding the stimulus buffer for FlexStation 3.
A fluorescence signal change was measured based on a relative fluorescence unit (RFU) or F/F0 where F0 is ta minimum fluorescence value of each fluorescence trace. To quantitatively compare activation effects of kurarinone and its derivatives, an initial fluorescence increase was calculated using first three points after treatment with the stimulation buffer, and a linear slope was predicted using OriginPro 9.1 (OriginLab Corp., Northampton, Mass.).

rat bladder strips = experiment: Isometric tension recording of bladder smooth muscle strips (ACh-induced contraction); conditions: 100 μM, 30 min pre-incubation, 1 μM ACh, compared to vehicle, n=6
Method: […] tension recording of UBSM experiment was performed by a known method (Dela Pena et al. 2009; Kullmann et al. 2014). In short, a male Sprague-Dawley rat (300-350 g) was euthanized by CO2 choking. Then, the bladder of the rat was excised. The bladder was longitudinally divided into four strips (approximately 2×8 mm). Each separated strip was clipped between a static mount and a force-displacement transducer. Then, the clipped strips were suspended in a temperature-controlled (37° C.) organ bath containing 10 ml of Krebs solution ((mM): 118.4 NaCl, 4.7 KCl, 1.2 KH2PO4, 1.2 MgSO4, 25.0 NaHCO3, 2.5 CaCl2, and 12.2 glucose; pH 7.35-7.40). Then, a mixture of 95% 02 and 5% CO2 was used to continuously generate bubbles in the organ bath. Each UBSM strip was stretched to 1.0 gram of an optimal isometric tension, and was equilibrated for 60 minutes. […] After reaching the equilibration, the strips were stabilized via repeated application of acetylcholine (1 μM) until a continuous reaction was recorded. […] Relaxation was expressed as a percentage reduction in the tension due to acetylcholine-induced contraction. […] Changes in the isometric tension were recorded using a Power Lab Data Acquisition System (ADInstruments) associated with a computer with Lab Chart Software (Version 7, AD Instruments) installed therein. […]

[2] = tested on: spontaneous hypertensive rats (SHR); experiment: Voiding behavior of spontaneous hypertensive rats (SHR); format: in vivo, rat
Method: (§1) The voiding frequency was monitored for 3 hours. FIG. 9B represents a total number of voidings. Each symbol or bar represents average±SEM of 5 (WKY) or 7 (SHR) animals (*** P<0.001).
(§2) The cumulative voiding frequency is shown in FIG. 9A for WKY and SHR orally administered with kurarinone. The administration of kurarinone may allow distinct differences in voiding frequency to be evident between WKY and SHR. […] In the WKY control rat, the decrease of the voiding frequency was not observed.

Wistar Kyoto rat (WKY) = experiment: Voiding behavior of Wistar Kyoto rat (WKY); format: in vivo; conditions: up to 5 mg/kg
Method: as §1, §2

T1 sequence (Q62976 whole entry G803D/N806K): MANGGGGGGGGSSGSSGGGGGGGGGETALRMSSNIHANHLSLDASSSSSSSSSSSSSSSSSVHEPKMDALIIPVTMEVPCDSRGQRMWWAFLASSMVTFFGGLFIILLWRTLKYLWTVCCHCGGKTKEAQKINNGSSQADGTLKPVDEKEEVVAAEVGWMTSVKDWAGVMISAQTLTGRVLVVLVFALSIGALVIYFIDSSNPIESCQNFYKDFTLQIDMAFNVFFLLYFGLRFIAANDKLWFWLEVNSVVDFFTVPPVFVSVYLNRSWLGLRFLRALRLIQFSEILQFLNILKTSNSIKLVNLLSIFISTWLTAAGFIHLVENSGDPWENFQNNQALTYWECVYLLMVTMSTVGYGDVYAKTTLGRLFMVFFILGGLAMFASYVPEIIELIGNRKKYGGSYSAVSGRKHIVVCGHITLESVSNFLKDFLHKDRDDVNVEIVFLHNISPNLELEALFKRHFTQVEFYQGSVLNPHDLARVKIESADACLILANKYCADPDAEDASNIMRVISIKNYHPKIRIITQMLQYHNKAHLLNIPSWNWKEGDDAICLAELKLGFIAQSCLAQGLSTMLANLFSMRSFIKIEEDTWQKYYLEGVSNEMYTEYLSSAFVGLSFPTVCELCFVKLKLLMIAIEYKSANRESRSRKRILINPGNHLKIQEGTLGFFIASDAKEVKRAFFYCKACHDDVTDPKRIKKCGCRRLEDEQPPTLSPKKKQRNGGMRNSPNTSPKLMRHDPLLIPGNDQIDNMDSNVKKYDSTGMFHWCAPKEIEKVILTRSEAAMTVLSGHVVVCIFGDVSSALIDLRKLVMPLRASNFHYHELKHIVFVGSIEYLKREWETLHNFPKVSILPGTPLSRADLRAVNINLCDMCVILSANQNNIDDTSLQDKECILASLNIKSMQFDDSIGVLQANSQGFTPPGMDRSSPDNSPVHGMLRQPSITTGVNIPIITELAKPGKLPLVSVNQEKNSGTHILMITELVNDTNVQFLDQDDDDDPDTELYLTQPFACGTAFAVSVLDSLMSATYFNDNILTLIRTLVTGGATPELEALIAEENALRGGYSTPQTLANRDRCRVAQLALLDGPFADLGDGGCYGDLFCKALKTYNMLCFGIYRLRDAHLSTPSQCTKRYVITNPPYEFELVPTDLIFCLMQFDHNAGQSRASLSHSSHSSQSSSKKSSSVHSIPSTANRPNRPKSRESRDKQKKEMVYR

TI+ fluorescence increase in library screening ([1]; 5 μM final concentration, compared to vehicle (1% DMSO), among 794 natural compounds): strongest fluorescence increase | TI+-fluorescence enhancement (initial RFU increase) ([1]; 10 μM, n=4): strong fluorescence increase | concentration dependence of TI+ fluorescence ([1]; 3, 5, 10, 30 μM): increased in a dose-dependent manner
Compound: C=C(C)[C@H](CC=C(C)C)Cc1c(O)cc(OC)c2c1O[C@H](c1ccc(O)cc1O)CC2=O [kurarinone]
relaxation effect on ACh-induced contraction (rat bladder strips): 58.2±6.2% | total voiding frequency for 3 hours ([2]; 5 mg/kg, vehicle 10.9±1.4): 6.9±0.8 | effect on voiding frequency ([2]; 0.5 and 5 mg/kg): reduced the voiding frequency for SHR in a dose-dependent manner | effect on voiding frequency (Wistar Kyoto rat (WKY)): not affected
